Data from PMC11852049, “Impact of Hydrophobic, Hydrophilic, and Mucus-Binding Motifs on the Therapeutic Potential of Ceftazidime Analogs for Pulmonary Administration” (Antibiotics, 2025).
In brackets after ≈: the same amount, converted by molar mass.

Experiments:
[1] = system: Burkholderia pseudomallei; test: microbe, parasite or virus in culture; assay type: cell-based; conditions: for MIC: Burkholderia pseudomallei, 24 h, read-out: MIC Bp; for MIC Bp: 24 h at 37 °C, cation-adjusted Mueller–Hinton II broth, mean of two replicates
Pseudomonas aeruginosa = test: microbe, parasite or virus in culture; assay type: cell-based; conditions: for MIC: Pseudomonas aeruginosa, 24 h, read-out: MIC Pa
Escherichia coli = test: microbe, parasite or virus in culture; assay type: cell-based; conditions: 24 h, read-out: MIC Ec
[2] = system: Staphylococcus aureus Newman; test: microbe, parasite or virus in culture; assay type: cell-based; conditions: for MIC: Staphylococcus aureus, NEWMAN, 24 h, read-out: MIC Sa
[3] = design: method as in PMID 29096171, PMID 7629560; conditions: delivered via injection; cited from earlier work
[4] = Transepithelial transport assay (Papp), HBEC air–liquid interface cultures on Transwells; conditions: human, Papp (apparent permeability), mean ± standard deviation, apical to basal over 24 h, approx. 5 mg/mL apical
[5] = compound set 2, three donors (L8 excluded)

Compound | MIC [1] | MIC (Pseudomonas aeruginosa) | MIC (Escherichia coli) | MIC [2] | penetration ratio (PELF-to-total plasma concentration) [3] | Papp at 24 h ([4]; compound set 1, three donors) | Papp at 24 h [4, 5] | MIC Bp [1] | MIC Pa (Pseudomonas aeruginosa) | MIC Sa [2]
CC(C)(O/N=C(\C(=O)N[C@@H]1C(=O)N2C(C(=O)[O-])=C(C[n+]3ccccc3)CS[C@H]12)c1csc(N)n1)C(=O)O [Ceftazidime pentahydrate, ceftazidime pentahydrate, reference compound] | 3 µg/mL | 6 µg/mL | 0.4 µg/mL | 13 µg/mL | 20–30% | 3.36 ± 0.18 ×10⁻⁶ cm/s | 2.54 ×10⁻⁶ cm/s | – | – | –
CCCCNC(=O)C(C)(C)O/N=C(/C(=O)N[C@@H]1C(=O)N2C(C(=O)[O-])=C(C[n+]3ccccc3)CS[C@H]12)c1csc(N)n1 [Compound 1, n-butyl-ceftazidime] | 200 µg/mL (≈ 332 µM) | 200 µg/mL (≈ 332 µM) | 100 µg/mL (≈ 166 µM) | 6 µg/mL (≈ 9.97 µM) | – | 1.91 ± 0.45 ×10⁻⁶ cm/s | – | – | – | –
CC(C)(O/N=C(/C(=O)N[C@@H]1C(=O)N2C(C(=O)[O-])=C(C[n+]3ccccc3)CS[C@H]12)c1csc(N)n1)C(=O)NCCc1ccccc1 [Compound 3] | 200 µg/mL (≈ 308 µM) | 200 µg/mL (≈ 308 µM) | 100 µg/mL (≈ 154 µM) | 3 µg/mL (≈ 4.62 µM) | – | – | 4.65 ± 0.86 ×10⁻⁶ cm/s | – | – | –
CC(C)(O/N=C(/C(=O)N[C@@H]1C(=O)N2C(C(=O)[O-])=C(C[n+]3ccccc3)CS[C@H]12)c1csc(N)n1)C(=O)NCCc1cc(O)c(O)cc1Cl [Compound 4] | 1.6 µg/mL (≈ 2.23 µM) | 19 µg/mL (≈ 26.5 µM) | < 15 µg/mL | 38 µg/mL (≈ 53.1 µM) | – | – | 2.94 ± 0.63 ×10⁻⁶ cm/s | < 60 µg/mL | < 60 µg/mL | –
CC(C)(O/N=C(/C(=O)N[C@@H]1C(=O)N2C(C(=O)[O-])=C(C[n+]3ccccc3)CS[C@H]12)c1csc(N)n1)C(=O)NCCCS(=O)(=O)c1ccccc1 [Compound 5] | 150 µg/mL (≈ 206 µM) | 200 µg/mL (≈ 275 µM) | < 15 µg/mL | 13 µg/mL (≈ 17.9 µM) | – | – | 2.71 ± 0.93 ×10⁻⁶ cm/s | – | – | –
CC(C)(O/N=C(/C(=O)N[C@@H]1C(=O)N2C(C(=O)[O-])=C(C[n+]3ccccc3)CS[C@H]12)c1csc(N)n1)C(=O)NCCCCCCOCCCCc1ccccc1 [Compound 6] | > 200 µg/mL | 200 µg/mL (≈ 257 µM) | 100 µg/mL (≈ 129 µM) | 3 µg/mL (≈ 3.86 µM) | – | – | 2.45 ± 0.21 ×10⁻⁶ cm/s | – | – | –
COCCOCCOCCNC(=O)C(C)(C)O/N=C(/C(=O)N[C@@H]1C(=O)N2C(C(=O)[O-])=C(C[n+]3ccccc3)CS[C@H]12)c1csc(N)n1 [Compound 7] | > 200 µg/mL | > 200 µg/mL | 100 µg/mL (≈ 145 µM) | 50 µg/mL (≈ 72.3 µM) | – | – | 3.6 ± 1.1 ×10⁻⁶ cm/s | – | – | –
COCCOCCOCCOCCOCCNC(=O)C(C)(C)O/N=C(/C(=O)N[C@@H]1C(=O)N2C(C(=O)[O-])=C(C[n+]3ccccc3)CS[C@H]12)c1csc(N)n1 [Compound 8] | > 200 µg/mL | > 200 µg/mL | ≥ 100 µg/mL | 100 µg/mL (≈ 128 µM) | – | 2.23 ± 0.22 ×10⁻⁶ cm/s | – | ≥ 100 µg/mL | ≥ 100 µg/mL | ≥ 100 µg/mL
COCCOCCOCCOCCOCCOCCOCCOCCNC(=O)C(C)(C)O/N=C(/C(=O)N[C@@H]1C(=O)N2C(C(=O)[O-])=C(C[n+]3ccccc3)CS[C@H]12)c1csc(N)n1 [Compound 9] | > 200 µg/mL | > 200 µg/mL | ≥ 100 µg/mL | 200 µg/mL (≈ 219 µM) | – | 1.86 ± 0.39 ×10⁻⁶ cm/s | – | ≥ 100 µg/mL | ≥ 100 µg/mL | ≥ 100 µg/mL
CC(C)(O/N=C(/C(=O)N[C@@H]1C(=O)N2C(C(=O)[O-])=C(C[n+]3ccccc3)CS[C@H]12)c1csc(N)n1)C(=O)NC1C(O)O[C@H](CO)[C@@H](O)[C@@H]1O (some centres unmarked) [Compound 10] | 38 µg/mL (≈ 53.7 µM) | 50 µg/mL (≈ 70.6 µM) | < 4 µg/mL | 150 µg/mL (≈ 212 µM) | – | – | 2.75 ± 0.68 ×10⁻⁶ cm/s | < 60 µg/mL | < 60 µg/mL | –
CCN(CC)CCNC(=O)C(C)(C)O/N=C(/C(=O)N[C@@H]1C(=O)N2C(C(=O)[O-])=C(C[n+]3ccccc3)CS[C@H]12)c1csc(N)n1 [Compound 11] | 75 µg/mL (≈ 116 µM) | 150 µg/mL (≈ 233 µM) | 63 µg/mL (≈ 97.7 µM) | 25 µg/mL (≈ 38.8 µM) | – | 3.58 ± 0.5 ×10⁻⁶ cm/s | – | – | – | < 40 µg/mL
CN1CCN(CCNC(=O)C(C)(C)O/N=C(/C(=O)N[C@@H]2C(=O)N3C(C(=O)[O-])=C(C[n+]4ccccc4)CS[C@H]23)c2csc(N)n2)CC1 [Compound 12] | > 200 µg/mL | > 200 µg/mL | ≥ 100 µg/mL | > 200 µg/mL | – | – | 2.6 ± 0.94 ×10⁻⁶ cm/s | ≥ 100 µg/mL | ≥ 100 µg/mL | ≥ 100 µg/mL
CC(C)(O/N=C(/C(=O)N[C@@H]1C(=O)N2C(C(=O)[O-])=C(C[n+]3ccccc3)CS[C@H]12)c1csc(N)n1)C(=O)NC(CCC(=O)O)C(=O)O (some centres unmarked) [Compound 13] | 200 µg/mL (≈ 296 µM) | 200 µg/mL (≈ 296 µM) | < 15 µg/mL | 200 µg/mL (≈ 296 µM) | – | – | 2.79 ± 0.91 ×10⁻⁶ cm/s | – | – | –
CC(C)(O/N=C(/C(=O)N[C@@H]1C(=O)N2C(C(=O)[O-])=C(C[n+]3ccccc3)CS[C@H]12)c1csc(N)n1)C(=O)NCCNc1ccnc(N)n1 [Compound 14] | > 200 µg/mL | 100 µg/mL (≈ 147 µM) | ≥ 100 µg/mL | > 200 µg/mL | – | – | 2.03 ± 0.6 ×10⁻⁶ cm/s | ≥ 100 µg/mL | ≥ 100 µg/mL | ≥ 100 µg/mL
CC(C)(O/N=C(/C(=O)N[C@@H]1C(=O)N2C(C(=O)[O-])=C(C[n+]3ccccc3)CS[C@H]12)c1csc(N)n1)C(=O)NCCOCCOCCOCCOCCOCCNc1ccnc(N)n1 [Compound 15, PEG5-pyrimidin-2-amine-ceftazidime] | 200 µg/mL (≈ 222 µM) | > 200 µg/mL | 38 µg/mL (≈ 42.1 µM) | 50 µg/mL (≈ 55.4 µM) | – | 1.75 ± 0.06 ×10⁻⁶ cm/s | – | – | – | –
CC(C)(O/N=C(/C(=O)N[C@@H]1C(=O)N2C(C(=O)[O-])=C(C[n+]3ccccc3)CS[C@H]12)c1csc(N)n1)C(=O)NCCCSc1ccc(B(O)O)cc1 [Compound 16, 4-propylthiophenyl boronic acid-ceftazidime] | 200 µg/mL (≈ 270 µM) | > 200 µg/mL | 50 µg/mL (≈ 67.6 µM) | 3 µg/mL (≈ 4.06 µM) | – | – | 4.9 ± 1.4 ×10⁻⁶ cm/s | – | – | –
CC(C)(O/N=C(/C(=O)N[C@@H]1C(=O)N2C(C(=O)[O-])=C(C[n+]3ccccc3)CS[C@H]12)c1csc(N)n1)C(=O)NCCCS(=O)(=O)c1ccc(B(O)O)cc1 [Compound 17] | 200 µg/mL (≈ 259 µM) | 200 µg/mL (≈ 259 µM) | 50 µg/mL (≈ 64.8 µM) | 13 µg/mL (≈ 16.8 µM) | – | – | 3.33 ± 0.36 ×10⁻⁶ cm/s | – | – | –
CC(C)(O/N=C(/C(=O)N[C@@H]1C(=O)N2C(C(=O)[O-])=C(C[n+]3ccccc3)CS[C@H]12)c1csc(N)n1)C(=O)NCCNC(=O)c1ccc(B(O)O)cc1 [Compound 18] | 50 µg/mL (≈ 67.9 µM) | 50 µg/mL (≈ 67.9 µM) | – | 25 µg/mL (≈ 33.9 µM) | – | – | 2.21 ± 0.45 ×10⁻⁶ cm/s | < 60 µg/mL | < 60 µg/mL | –
